Test results published in PMC8145535, “New Acyl Derivatives of 3-Aminofurazanes and Their Antiplasmodial Activities” (Pharmaceuticals, 2021).
Like-named read-outs stand apart in the source and are kept apart here.

Key:
P. falciparum NF54 = assay: In vitro 3H-hypoxanthine incorporation assay, erythrocytic stages, NF54 strain; type: cell-based, Plasmodium falciparum; conditions: average of four determinations, read-out: P.f. NF54 IC50
Experimental: (§1) Chloroquine (Sigma C6628) was used as standard. […] Serial drug dilutions of 11 3-fold dilution steps covering a range from 100 to 0.002 μg/mL were prepared. The 96-well plates were incubated in a humidified atmosphere at 37 °C; 4% CO2, 3% O2, 93% N2. […] The plates were incubated for a further 24 h under the same conditions. The plates were then harvested with a Betaplate cell harvester (Wallac, Zurich, Switzerland). The red blood cells were transferred onto a glass fiber filter and washed with distilled water. The dried filters were inserted into a plastic foil with 10 mL of scintillation fluid and counted in a Betaplate liquid scintillation counter (Wallac, Zurich, Switzerland).

P. falciparum K1 = assay: In vitro 3H-hypoxanthine incorporation assay, erythrocytic stages, K1 strain; type: cell-based; conditions: Plasmodium falciparum
Experimental: as §1

in vitro = conditions: rat
Experimental: Serial drug dilutions of 11 3-fold dilution steps covering a range from 100 to 0.002 μg/mL were prepared. After 70 h of incubation, the plates were inspected under an inverted microscope to assure the growth of the controls and sterile conditions. […] Then, the plates were read with a Spectramax Gemini XS microplate fluorometer (Molecular Devices Cooperation, Sunnyvale, CA, USA) using an excitation wavelength of 536 nm and an emission wavelength of 588 nm. […] Podophyllotoxin (Sigma P4405) was used as control.

[1] = Parallel artificial membrane permeability assay (PAMPA); type: in vitro ADME; conditions: pH 7.4, 200 µM in PBS, room temperature; for Papp at 5 h, 200 µM: pH 7.4, PAMPA, read-out: Pe (effective permeability)
Experimental: The PAMPA was performed using a 96-well precoated Corning Gentest PAMPA plate at a pH of 7.4. The PAMPA plate system consists of a donor plate and an acceptor plate. When both plates are coupled, each well is divided into two chambers that are separated by a lipid–oil–lipid trilayer constructed in a porous filter. Stock solutions (10 mM) of each compound were prepared in DMSO and then further diluted to a concentration of 200 µM in phosphate-buffered saline (PBS) at pH 7.4. The compound dissolved in PBS was then added to the donor plate and pure PBS was added to the acceptor plate. Four replicates of each compound and negative control (PBS) were transferred into different wells of the donor plate. Both plates were coupled and left at room temperature for 5 h. Then, the plates were separated, and the solutions of each donor well and acceptor well were transferred to 96-well UV-Star Microplates (Greiner Bio-One). The UV absorbance of compounds in donor wells and acceptor wells were analyzed by a SpectraMax M3 UV plate reader (Molecular Devices). The concentrations were received from a calibration curve for each substance. The plates were analyzed at a wavelength where the R^2 value of the calibration curve was higher than 0.99 [34]. The effective permeability (Pe) was calculated as shown in the following Equations (1)–(3):(1) Penm/s=10^7∗−ln1−cAt/cequ/S∗1/VD+1/VA∗ t where:
cequ—equilibrium concentration. (2) cequ=cDt ∗VD+cAt ∗VA/VD+VA where:
Recovery of compounds from donor and acceptor wells (mass retention) was calculated as shown in the equation below. Data were only accepted when recovery exceeded 70%.

[2] = test system: multiresistant strain K1 of Plasmodium falciparum; design: method as in PMID 27467575; conditions: MMV Malaria Box; cited from earlier work
[3] = test system: multiresistant strain Dd2 of Plasmodium falciparum; design: method as in PMID 27467575; conditions: MMV Malaria Box; cited from earlier work
[4] = test system: P. berghei liver schizonts; design: method as in PMID 27275010, PMID 16242190; conditions: P. berghei assay; cited from earlier work
early gametocyte stages = test system: early gametocyte stages; design: method as in PMID 24060871, PMID 23234555, PMID 26787698, PMID 26749441, PMID 17521751; conditions: cited from earlier work
Na+-efflux pump PfATP4 = test system: Na+-efflux pump PfATP4; design: method as in PMID 25145582, PMID 33023071, PMID 19956997, PMID 25715757; conditions: possible target; cited from earlier work
[5] = Plasmodium falciparum, NF54, chloroquine-sensitive strain
[6] = K1, strain resistant to chloroquine and pyrimethamine, average of four determinations, read-out: P.f. K1 IC50

SMILES	IC50 (P. falciparum NF54; [5]) [nM]	IC50 (P. falciparum K1; [6]) [nM]	IC50 at 72 h (in vitro) [µM]	Papp at 5 h, 200 µM [1] [×10⁻⁶ cm/s]	melting point	further results
CCOc1ccc(-c2nonc2NC(=O)CN2CCOCC2)cc1OCC [Compound 32, N-(4-(3,4-Diethoxyphenyl)-1,2,5-oxadiazol-3-yl)-2-(morpholin-4-yl)acetamide]	24200	19500	266	10.2 to 10.8		Pe (effective permeability) [1]: 10.25 10^−6 cm/s
CCOc1ccc(-c2nonc2NC(=O)c2ccc(OC)c(F)c2)cc1OCC [Compound 17, N-(4-(3,4-Diethoxyphenyl)-1,2,5-oxadiazol-3-yl)-3-fluoro-4-methoxybenzamide]			35	3.9	232 °C (dec.)	
CCOc1ccc(-c2nonc2NC(=O)c2ccc(CN3CCCC3)cc2)cc1OCC [Compound 26, N-(4-(3,4-Diethoxyphenyl)-1,2,5-oxadiazol-3-yl)-4-((pyrrolidin-1-yl)methyl)benzamide]		1870	102	8.13	251 °C (dec.)	
CCOc1ccc(-c2nonc2NC(=O)c2ccccc2C)cc1OCC [Compound 11, N-(4-(3,4-Diethoxyphenyl)-1,2,5-oxadiazol-3-yl)-2-methylbenzamide]	343 to 831		14.9			IC50 (P. falciparum NF54; chloroquine-sensitive strain): 343 nM
CCOc1ccc(-c2nonc2NC(=O)CCN2CCOCC2)cc1OCC [Compound 35, N-(4-(3,4-Diethoxyphenyl)-1,2,5-oxadiazol-3-yl)-3-(morpholin-4-yl)propanamide]	30200	19000	147	6.08		
Cc1cccc(C(=O)Nc2nonc2-c2ccccc2)c1 [Compound 39, 3-Methyl-N-(4-phenyl-1,2,5-oxadiazol-3-yl)benzamide]	21500	39900	66	8.47		
CCOc1ccc(-c2nonc2NC(=O)c2cccc(CN3CCOCC3)c2)cc1OCC [Compound 29, N-(4-(3,4-Diethoxyphenyl)-1,2,5-oxadiazol-3-yl)-3-((morpholin-4-yl)methyl)benzamide]	712		104	5.65	199 °C	
CCOc1ccc(-c2nonc2NC(=O)CN2CCCC2)cc1OCC [Compound 31, N-(4-(3,4-Diethoxyphenyl)-1,2,5-oxadiazol-3-yl)-2-(pyrrolidin-1-yl)acetamide]	7240	5020	242	10.2 to 10.8		Pe (effective permeability) [1]: 10.80 10^−6 cm/s
COc1cc([C@@H]2c3cc4c(cc3[C@H](O)[C@H]3COC(=O)[C@H]23)OCO4)cc(OC)c1OC [POD, podophyllotoxin, reference compound]			0.012			
CCOc1ccc(-c2nonc2NC(=O)CCN2CCCC2)cc1OCC [Compound 34, N-(4-(3,4-Diethoxyphenyl)-1,2,5-oxadiazol-3-yl)-3-(pyrrolidin-1-yl)propanamide]	56000	2410	140	6.93		
CCOc1ccc(-c2nonc2NC(=O)c2cccc(C(F)(F)F)c2)cc1OCC [Compound 13, N-(4-(3,4-Diethoxyphenyl)-1,2,5-oxadiazol-3-yl)-3-(trifluoromethyl)benzamide]	19	7	9.97	4.26	153 °C	
C[C@@H]1CC[C@H]2[C@@H](C)C(=O)O[C@@H]3O[C@@]4(C)CC[C@@H]1[C@]32OO4 [ART, artemisinin, reference compound]		6.4	450			
CCN(CC)CCCC(C)Nc1ccnc2cc(Cl)ccc12 (stereo not drawn) [CQ, chloroquine, reference compound]			188			IC50 (P. falciparum K1; K1, read-out: P.f. K1 IC50): 150 nM
CCOc1ccc(-c2nonc2NC(=O)c2cccc(C)c2)cc1OCC [Compound 1, N-(4-(3,4-Diethoxyphenyl)-1,2,5-oxadiazol-3-yl)-3-methylbenzamide]	11	11	159	2.77		antiplasmodial activity against multiresistant strain K1 [2]: shows antiplasmodial activity; antiplasmodial activity against multiresistant strain Dd2 [3]: shows antiplasmodial activity; activity against liver schizonts [4]: activity against liver schizonts; activity against early gametocyte stages (early gametocyte stages): working against early gametocyte stages; inhibition of PfATP4 (Na+-efflux pump PfATP4): likely to inhibit
CCOc1ccc(-c2nonc2NC(=O)c2ccccc2C(F)(F)F)cc1OCC [Compound 12, N-(4-(3,4-Diethoxyphenyl)-1,2,5-oxadiazol-3-yl)-2-(trifluoromethyl)benzamide]			14.2			
CCOc1ccc(-c2nonc2NC(=O)c2ccccc2)cc1OCC [Compound 10, N-(4-(3,4-Diethoxyphenyl)-1,2,5-oxadiazol-3-yl)benzamide]	76	91	111		199 °C	
CCOc1ccc(-c2nonc2NC(=O)c2cccc(F)c2)cc1OCC [Compound 14, N-(4-(3,4-Diethoxyphenyl)-1,2,5-oxadiazol-3-yl)-3-fluorobenzamide]	49	108	41.1		250 °C	
CCOc1ccc(-c2nonc2NC(=O)c2cccc(OC(F)(F)F)c2)cc1OCC [Compound 15, N-(4-(3,4-Diethoxyphenyl)-1,2,5-oxadiazol-3-yl)-3-(trifluoromethoxy)benzamide]	98		14			
CCOc1ccc(-c2nonc2NC(=O)c2ccc(CN3CCOCC3)cc2)cc1OCC [Compound 27, N-(4-(3,4-Diethoxyphenyl)-1,2,5-oxadiazol-3-yl)-4-((morpholin-4-yl)methyl)benzamide]	674 to 4050	586	116		269 °C (dec.)	IC50 (P. falciparum NF54; chloroquine-sensitive strain): 674 nM
CCOc1ccc(-c2nonc2NC(=O)c2ccc(OC)c(Cl)c2)cc1OCC [Compound 16, 3-Chloro-N-(4-(3,4-diethoxyphenyl)-1,2,5-oxadiazol-3-yl)-4-methoxybenzamide]	14 to 167		20		260 °C (dec.)	IC50 (P. falciparum NF54; chloroquine-sensitive strain): 14 nM
CCOc1ccc(-c2nonc2NC(=O)c2cccc(CN3CCCC3)c2)cc1OCC [Compound 28, N-(4-(3,4-Diethoxyphenyl)-1,2,5-oxadiazol-3-yl)-3-((pyrrolidin-1-yl)methyl)benzamide]	192		77.2	7.26		
